# Where a chain is given by its changes, count along the chain named. No end group written: not given here.
# Columns and labels:
# CGH-1_248-420^WT = biological target: T1, CGH-1_248-420^WT (Caenorhabditis elegans, UniProt Q95YF3); test: ITC binding to CGH-1_248–420 WT; design: species or system C. elegans
# T1 construct: the cDNA fragments encoding CGH-1 RecA2 (residues 248–420); made in house; host or cells: E. coli Gold (DE3)
# T1 sequence (Q95YF3 248-420): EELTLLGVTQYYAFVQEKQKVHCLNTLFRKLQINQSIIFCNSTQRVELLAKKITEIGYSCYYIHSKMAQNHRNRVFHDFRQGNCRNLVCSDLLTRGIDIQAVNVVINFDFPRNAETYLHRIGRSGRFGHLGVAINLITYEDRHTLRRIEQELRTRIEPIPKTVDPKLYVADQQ
# Description: (§1) Expression plasmids regarding CGH-1 and CAR-1 were constructed as previously described. In brief, the cDNA fragments encoding CGH-1 RecA2 (residues 248–420), CAR-1 FDF-TFG (residues 184–268) were amplified by PCR from C. elegans genome library and cloned into the NdeI and XhoI site of a modified pET-28a (Novagen) vector (p28a), in which a thrombin protease cleavage site was removed.
# (§2) CGH-1 protein expression and purification were performed described as in our most recent paper. In brief, proteins were expressed in E. coli Gold (DE3) strain (Novagen). […] Cells were resuspended in Buffer A (20 mM Tris–HCl, pH 7.5, 1 M NaCl), and then lysed using high pressure at 4 °C. Proteins were initially purified by Ni-chelating resin (Qiagen), and further purified by size exclusion chromatography (SEC) on a Superdex 75 column (GE healthcare) in Buffer A. The purified proteins were dialyzed into Buffer B (20 mM Tris–HCl, pH 7.5, 150 mM NaCl).
# (§3) A peptide containing the C. elegans EDC-3 FDF fragment (residues 235–271) and PATR-1 fragment (residues 30–67) were synthesized from GL Biochem (Shanghai, China) Co., Ltd, respectively. Stock solutions of peptide were prepared in Buffer B described above, and were adjusted to pH 7.5 ± 0.02 for subsequent experiments.
# (§4) ITC assays were performed as previously described. In brief, it was carried out on a MicroCal PEAQ-ITC (Malvern) at 20 °C with the following settings: reference power, 5 μcal/s; initial delay, 60 s; stir speed, 750 rpm; spacing time, 120 s. Proteins (or its mutants) and peptides were adjusted to 0.05 mM and 0.5 mM, respectively. Experiments were initialed by injection of 1 μl each of peptide into the sample cell (200 μl) filled with protein (or its mutants) solution, followed by 18 injections of 2 μl. The ITC data were fitted with a one-binding-site model using the Origin analysis software.
# CGH-1_248-420^K277E = biological target: T2, CGH-1_248-420^K277E (Caenorhabditis elegans, UniProt Q95YF3, K277E); test: ITC binding to CGH-1_248–420 K277E; design: species or system C. elegans; conditions: 20 °C
# T2 construct: the cDNA fragments encoding CGH-1 RecA2 (residues 248–420); made in house; host or cells: E. coli Gold (DE3)
# Description: as §1, §2, §3
# (§5) ITC assays were performed as previously described. […]
# CGH-1_248-420^E396A = biological target: T3, CGH-1_248-420^E396A (Caenorhabditis elegans, UniProt Q95YF3, E396A); test: ITC binding to CGH-1_248–420 E396A; design: species or system C. elegans; conditions: 20 °C
# T3 construct: the cDNA fragments encoding CGH-1 RecA2 (residues 248–420); made in house; host or cells: E. coli Gold (DE3)
# Description: as §1, §2, §3, §5
# CGH-1_248-420^H269A = biological target: T4, CGH-1_248-420^H269A (Caenorhabditis elegans, UniProt Q95YF3, H269A); test: ITC binding to CGH-1_248–420 H269A; design: species or system C. elegans; conditions: 20 °C, pH 7.5, 150 mM NaCl, CGH-1 H269A
# T4 construct: the cDNA fragments encoding CGH-1 RecA2 (residues 248–420); made in house; host or cells: E. coli Gold (DE3)
# Description: as §1, §2, §3, §5
# CGH-1_248-420^Q266A = biological target: T5, CGH-1_248-420^Q266A (Caenorhabditis elegans, UniProt Q95YF3, Q266A); test: ITC binding to CGH-1_248–420 Q266A; design: species or system C. elegans; conditions: 20 °C, pH 7.5, 150 mM NaCl, CGH-1 Q266A
# T5 construct: the cDNA fragments encoding CGH-1 RecA2 (residues 248–420); made in house; host or cells: E. coli Gold (DE3)
# Description: as §1, §2, §3, §5
# CGH-1_248-420^4A = biological target: T6, CGH-1_248-420^4A (Caenorhabditis elegans, UniProt Q95YF3, C270A/H269A/L274A/T273A); test: ITC binding to CGH-1_248–420 4A (H269A, C270A, T273A, L274A); design: species or system C. elegans; conditions: CGH-1 4A vs WT
# T6 construct: the cDNA fragments encoding CGH-1 RecA2 (residues 248–420); made in house; host or cells: E. coli Gold (DE3)
# T6 sequence (Q95YF3 248-420 H269A/C270A/T273A/L274A limits assumed): T1 sequence (Q95YF3 248-420) with H22A, C23A, T26A, L27A
# Description: as §1, §2, §3, §4
# CGH-1_248–420 mutants = test: ITC binding to several CGH-1_248–420 single mutants; design: species or system C. elegans; conditions: substitution of each of Phe261, Gln266, His269 with Ala
# Description: as §1, §2, §3, §5
# CGH-1_248-420^R393A = biological target: T7, CGH-1_248-420^R393A (Caenorhabditis elegans, UniProt Q95YF3, R393A); type: binding, C. elegans; conditions: ITC, 20 °C
# T7 construct: the cDNA fragments encoding CGH-1 RecA2 (residues 248–420); made in house; host or cells: E. coli Gold (DE3)
# Description: as §1, §2, §3, §4
# CGH-1_248-420^F261A = biological target: T8, CGH-1_248-420^F261A (Caenorhabditis elegans, UniProt Q95YF3, F261A); type: binding, C. elegans; conditions: ITC, 20 °C, pH 7.5, 150 mM NaCl; CGH-1 F261A
# T8 construct: the cDNA fragments encoding CGH-1 RecA2 (residues 248–420); made in house; host or cells: E. coli Gold (DE3)
# Description: as §1, §2, §3, §4
# CGH-1_248-420^K277A = biological target: T9, CGH-1_248-420^K277A (Caenorhabditis elegans, UniProt Q95YF3, K277A); type: binding, C. elegans; conditions: ITC, 20 °C
# T9 construct: the cDNA fragments encoding CGH-1 RecA2 (residues 248–420); made in house; host or cells: E. coli Gold (DE3)
# Description: as §1, §2, §3, §4
# T3 sequence (Q95YF3 248-420 E396A): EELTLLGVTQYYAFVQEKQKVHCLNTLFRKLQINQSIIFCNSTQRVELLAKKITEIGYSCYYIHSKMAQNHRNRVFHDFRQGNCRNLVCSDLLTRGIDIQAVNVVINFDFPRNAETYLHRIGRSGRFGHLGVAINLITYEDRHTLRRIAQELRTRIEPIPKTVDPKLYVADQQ
# T9 sequence (Q95YF3 248-420 K277A): as the sequence (Q95YF3 248-420 E396A) above, with K30A, A149E counted along it
# T7 sequence (Q95YF3 248-420 R393A): as the sequence (Q95YF3 248-420 E396A) above, with R146A, A149E counted along it
# T2 sequence (Q95YF3 248-420 K277E): as the sequence (Q95YF3 248-420 E396A) above, with K30E, A149E counted along it
# T5 sequence (Q95YF3 248-420 Q266A): as the sequence (Q95YF3 248-420 E396A) above, with Q19A, A149E counted along it
# T4 sequence (Q95YF3 248-420 H269A): as the sequence (Q95YF3 248-420 E396A) above, with H22A, A149E counted along it
# T8 sequence (Q95YF3 248-420 F261A): as the sequence (Q95YF3 248-420 E396A) above, with F14A, A149E counted along it
sequence,measurement,setting,value
LADPIDFDLDSDFDFAENLKLFEKDENDDQYYETVEK [EDC-3_235–271],Kd,CGH-1_248-420^WT,340 ± 20 nM
same,− TΔS,"CGH-1_248-420^WT; ITC, 20 °C, pH 7.5, 150 mM NaCl, CGH-1_248–420 WT",8.94 kcal/mol
same,binding affinity of EDC-3 FDF-FEK motif relative to corresponding region of CAR-1 (by KD),"CGH-1_248-420^WT; ITC, CGH-1_248–420, 0.34 μM (this work) vs 43 μM (ref 17)",> 126 times
same,binding affinity relative to CAR-1_184–268 (by KD),"CGH-1_248-420^WT; ITC, CGH-1_248–420 WT, 0.34 μM vs 3.03 μM",approximately ninefold stronger
same,KD(mut) / KD(wt),CGH-1_248-420^K277E; CGH-1 K277E vs WT,~ 17.5
same,− TΔS,"CGH-1_248-420^K277E; pH 7.5, 150 mM NaCl, CGH-1 K277E",4.48 kcal/mol
same,KD(mut) / KD(wt),CGH-1_248-420^E396A; CGH-1 E396A vs WT,~ 2.5
same,− TΔS,"CGH-1_248-420^E396A; pH 7.5, 150 mM NaCl, CGH-1 E396A",7.92 kcal/mol
same,− TΔS,CGH-1_248-420^H269A,4.97 kcal/mol
same,− TΔS,CGH-1_248-420^Q266A,4.34 kcal/mol
same,KD(mut) / KD(wt),CGH-1_248-420^4A; 20 °C,~ 25.7
same,binding affinity compared to wildtype (in words),CGH-1_248-420^4A,dramatically impaired the binding affinity
same,binding affinity compared to wildtype (in words),CGH-1_248-420^4A; listed as EDC-3 peptide,dramatically disrupted the interaction
same,"weakening of binding affinity, factor vs WT",CGH-1_248–420 mutants,3.4–7.5
same,− TΔS,"CGH-1_248-420^R393A; pH 7.5, 150 mM NaCl, CGH-1 R393A",9.68 kcal/mol
same,KD(mut) / KD(wt),CGH-1_248-420^R393A; CGH-1 R393A vs WT,~ 6.1
same,− TΔS,CGH-1_248-420^F261A,6.17 kcal/mol
same,− TΔS,"CGH-1_248-420^K277A; pH 7.5, 150 mM NaCl, CGH-1 K277A",7.74 kcal/mol
same,KD(mut) / KD(wt),CGH-1_248-420^K277A; CGH-1 K277A vs WT,~ 8.1
